Type in all cases: functional
The test system of test [1] is Staphylococcus aureus. As to the kind of experiment: Antibacterial activity against methicillin-resistant Staphylococcus aureus assessed growth inhibition by micro broth dilution method. On the technique in general: Broth dilution looks for growth in wells or tubes with falling amounts of substance.
Test [2] concerns Staphylococcus aureus. As to the kind of experiment: Antibacterial activity against Staphylococcus aureus assessed growth inhibition by micro broth dilution method.
Test [3] deals with Staphylococcus aureus. As to the kind of experiment: Antibacterial activity against Staphylococcus aureus ATCC 25923 assessed growth inhibition by micro broth dilution method.
Test [4] concerns Staphylococcus aureus. As to the kind of experiment: Antibacterial activity against Staphylococcus aureus ATCC 29213 assessed growth inhibition by micro broth dilution method.
Another test relates to Enterococcus faecalis. As to the kind of experiment: Antibacterial activity against Enterococcus faecalis assessed growth inhibition by micro broth dilution method.
The subject of another test is Klebsiella pneumoniae. The experiment in a line: Antibacterial activity against Klebsiella pneumonia assessed growth inhibition by micro broth dilution method.
In test [5] the test system is Escherichia coli. As to the kind of experiment: Antibacterial activity against Escherichia coli assessed growth inhibition by micro broth dilution method.
The test system of test [6] is Escherichia coli. The experiment in a line: Antibacterial activity against Escherichia coli ATCC 25922 assessed growth inhibition by micro broth dilution method.
The subject of test [7] is Pseudomonas aeruginosa. As to the kind of experiment: Antibacterial activity against Pseudomonas aeruginosa assessed growth inhibition by micro broth dilution method.
Test [8] relates to Pseudomonas aeruginosa. As to the kind of experiment: Antibacterial activity against Pseudomonas aeruginosa ATCC 27853 assessed growth inhibition by micro broth dilution method.
The subject of a further test is Acinetobacter baumannii. As to the kind of experiment: Antibacterial activity against Acinetobacter baumannii assessed growth inhibition by micro broth dilution method.

Structures are written as SMILES. Values after ≈ are worked out from the molar mass of the structure shown.

By MIC is commonly meant the smallest concentration in the dilution series that meets the test's criterion for growth inhibition. A low value points to greater potency. As for `CCOC(=O)c1cn(CC)c2cc(F)c(F)cc2c1=O`, the MIC against Staphylococcus aureus [1] turned out to be 256 µg/mL (≈ 910 µM); with Staphylococcus aureus [2], 32 µg/mL (≈ 114 µM); in the test with Staphylococcus aureus [3] it was 256 µg/mL (≈ 910 µM); in the test with Staphylococcus aureus [4], 128 µg/mL (≈ 455 µM); against Enterococcus faecalis, 128 µg/mL (≈ 455 µM); against Klebsiella pneumoniae, 64 µg/mL (≈ 228 µM). Moreover, the MIC with Escherichia coli [5] was 16 µg/mL (≈ 56.9 µM); in the test on Escherichia coli [6], 64 µg/mL (≈ 228 µM); against Pseudomonas aeruginosa [7], 64 µg/mL (≈ 228 µM); in the test on Pseudomonas aeruginosa [8] it was 256 µg/mL (≈ 910 µM); with Acinetobacter baumannii, 256 µg/mL (≈ 910 µM).

Turning to `C#CCn1cc(C(=O)OCC)c(=O)c2cc(F)c(F)cc21`, the MIC was 128 µg/mL (≈ 439 µM) in the test on Staphylococcus aureus [1]; 128 µg/mL (≈ 439 µM) in the test on Staphylococcus aureus [2]; 256 µg/mL (≈ 879 µM) against Staphylococcus aureus [3]; 128 µg/mL (≈ 439 µM) against Staphylococcus aureus [4]; 128 µg/mL (≈ 439 µM) in the test on Enterococcus faecalis; 128 µg/mL (≈ 439 µM) in the test on Klebsiella pneumoniae. Further, the MIC against Escherichia coli [5] was found to be 4 µg/mL (≈ 13.7 µM); with Escherichia coli [6], 64 µg/mL (≈ 220 µM); in the test on Pseudomonas aeruginosa [7], 16 µg/mL (≈ 54.9 µM); against Pseudomonas aeruginosa [8] it was 256 µg/mL (≈ 879 µM); with Acinetobacter baumannii, 256 µg/mL (≈ 879 µM).

With `CCOC(=O)c1cn(Cc2ccccn2)c2cc(F)c(F)cc2c1=O`, the MIC is 256 µg/mL (≈ 744 µM) in the test with Staphylococcus aureus [1]; 64 µg/mL (≈ 186 µM) against Staphylococcus aureus [2]; 64 µg/mL (≈ 186 µM) in the test with Staphylococcus aureus [3]; 128 µg/mL (≈ 372 µM) against Staphylococcus aureus [4]; 128 µg/mL (≈ 372 µM) in the test on Enterococcus faecalis; 128 µg/mL (≈ 372 µM) in the test on Klebsiella pneumoniae. Moreover, the MIC with Escherichia coli [5] was 2 µg/mL (≈ 5.81 µM); in the test with Escherichia coli [6] it was 64 µg/mL (≈ 186 µM); against Pseudomonas aeruginosa [7] it was 128 µg/mL (≈ 372 µM); against Pseudomonas aeruginosa [8], 64 µg/mL (≈ 186 µM); with Acinetobacter baumannii, 16 µg/mL (≈ 46.5 µM).

With `CCOC(=O)c1cn(Cc2ccccc2)c2cc(F)c(F)cc2c1=O`, the MIC with Staphylococcus aureus [1] came out at 256 µg/mL (≈ 746 µM); against Staphylococcus aureus [2] it was 128 µg/mL (≈ 373 µM); in the test on Staphylococcus aureus [3], 256 µg/mL (≈ 746 µM); in the test on Staphylococcus aureus [4], 256 µg/mL (≈ 746 µM); in the test with Enterococcus faecalis, 128 µg/mL (≈ 373 µM); in the test on Klebsiella pneumoniae, 256 µg/mL (≈ 746 µM). The MIC against Escherichia coli [5] is 2 µg/mL (≈ 5.83 µM); with Escherichia coli [6], 128 µg/mL (≈ 373 µM); in the test on Pseudomonas aeruginosa [7], 256 µg/mL (≈ 746 µM); against Pseudomonas aeruginosa [8], 256 µg/mL (≈ 746 µM); in the test on Acinetobacter baumannii it was 2 µg/mL (≈ 5.83 µM).

On to `CCOC(=O)c1cn(C2CC2)c2cc([C-](C#N)C(=O)OCC)c(F)cc2c1=O.[Na+]` (stereo not drawn), for which the MIC was found to be 16 µg/mL against Staphylococcus aureus [1]; 32 µg/mL against Staphylococcus aureus [2]; 8 µg/mL against Staphylococcus aureus [3]; 32 µg/mL with Staphylococcus aureus [4]; 16 µg/mL in the test on Enterococcus faecalis; 16 µg/mL against Klebsiella pneumoniae. The MIC was 16 µg/mL with Escherichia coli [5]; 32 µg/mL against Escherichia coli [6]; 32 µg/mL against Pseudomonas aeruginosa [7]; 16 µg/mL in the test with Pseudomonas aeruginosa [8]; 32 µg/mL in the test with Acinetobacter baumannii.

`CCCCCCn1cc(C(=O)OCC)c(=O)c2cc(F)c([C-](C#N)C(=O)OCC)cc21.[Na+]` (stereo not drawn): the MIC is 32 µg/mL with Staphylococcus aureus [1]; 16 µg/mL in the test with Staphylococcus aureus [2]; 0.5 µg/mL in the test with Staphylococcus aureus [3]; 1 µg/mL against Staphylococcus aureus [4]; 16 µg/mL against Enterococcus faecalis; 1 µg/mL against Klebsiella pneumoniae. The MIC against Escherichia coli [5] was determined as 0.5 µg/mL; in the test on Escherichia coli [6] it was 1 µg/mL; against Pseudomonas aeruginosa [7], 0.5 µg/mL; with Pseudomonas aeruginosa [8], 1 µg/mL; against Acinetobacter baumannii, 0.5 µg/mL.

As for `CCCCn1cc(C(=O)OCC)c(=O)c2cc(F)c([C-](C#N)C(=O)OCC)cc21.[Na+]` (stereo not drawn), the MIC against Staphylococcus aureus [1] is 32 µg/mL; in the test on Staphylococcus aureus [2] it was 64 µg/mL; in the test on Staphylococcus aureus [3] it was 2 µg/mL; against Staphylococcus aureus [4] it was 8 µg/mL; against Enterococcus faecalis it was 16 µg/mL; in the test on Klebsiella pneumoniae it was 16 µg/mL. The MIC against Escherichia coli [5] came out at 8 µg/mL; with Escherichia coli [6], 16 µg/mL; against Pseudomonas aeruginosa [7], 8 µg/mL; against Pseudomonas aeruginosa [8], 8 µg/mL; in the test with Acinetobacter baumannii, 16 µg/mL.

Take `CCOC(=O)c1cn(CC2CCCC2)c2cc(F)c(F)cc2c1=O`: the MIC against Staphylococcus aureus [1] worked out at 256 µg/mL (≈ 763 µM); in the test on Staphylococcus aureus [2] it was 64 µg/mL (≈ 191 µM); in the test on Staphylococcus aureus [3], 16 µg/mL (≈ 47.7 µM); against Staphylococcus aureus [4] it was 128 µg/mL (≈ 382 µM); against Enterococcus faecalis, 256 µg/mL (≈ 763 µM); in the test with Klebsiella pneumoniae, 32 µg/mL (≈ 95.4 µM). The MIC in the test on Escherichia coli [5] is 8 µg/mL (≈ 23.9 µM); against Escherichia coli [6], 128 µg/mL (≈ 382 µM); in the test with Pseudomonas aeruginosa [7], 128 µg/mL (≈ 382 µM); in the test on Pseudomonas aeruginosa [8], 256 µg/mL (≈ 763 µM); in the test with Acinetobacter baumannii, 256 µg/mL (≈ 763 µM).

The record behind these values is ChEMBL document CHEMBL5528028, “Discovery of benzopyridone cyanoacetates as new type of potential broad-spectrum antibacterial candidates” (Eur J Med Chem, 2024).
